In brackets after ≈: the same amount, converted by molar mass.
Experiments:
[1] = target: T1, full length heterotrimeric human RPA (Homo sapiens, UniProt P27694); experiment: Electrophoretic mobility shift assay (EMSA), binding of full length human RPA to ssDNA; settings: full length human RPA binding to DNA, mean ± SD of minimum triplicate experiments
T1 construct: Full length, heterotrimeric human RPA (fl-RPA) and DBD-A/B constructs were expressed and purified; made in house
In short: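 Full-length human RPA (50 nM) preincubated 30 min with compound (DMSO ≤5%), then 2.5 nM 5′-32P 34-base ssDNA added for 5 min at room temperature in 20 mM HEPES pH 7.8, 50 mM NaCl. Bound/unbound resolved by 6% native PAGE, phosphorimager quantified; IC50 by non-linear regression.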

[2] = target: T2, RPA-AB construct (RPA70 AB domain) (Homo sapiens, UniProt P27694); experiment: Differential scanning fluorimetry (DSF); type: binding
T2 construct: The DBD-A/B construct was expressed as a His6-RPA181-422 fusion protein; His6 (N); made in house; host or cells: E. coli BL21 (DE3)
T2 sequence (P27694 181-422): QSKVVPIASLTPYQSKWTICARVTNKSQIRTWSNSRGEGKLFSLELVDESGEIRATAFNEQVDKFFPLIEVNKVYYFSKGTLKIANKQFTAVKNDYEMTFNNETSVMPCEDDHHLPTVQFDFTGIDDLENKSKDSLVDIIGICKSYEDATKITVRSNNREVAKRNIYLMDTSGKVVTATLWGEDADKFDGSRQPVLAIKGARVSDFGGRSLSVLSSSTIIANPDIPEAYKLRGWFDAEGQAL
Experimental: In order to probe the potential role of DNA intercalation as a mechanism for RPA inhibition, compounds 19, 23, 26, 27, 43 and 45 were analyzed using FID assay along with doxorubicin (Dox) as a positive control. […] In addition, direct binding of 9 derivatives to the target protein was assessed using a differential scan fluorimetry (DSF) assay. This assay assesses the melting profile of a protein at increasing temperatures via fluorescent dye binding. The direct interaction of a small molecule to the target protein can either increase or decrease the melting temperature (Tm) of the target depending on the specific protein and their interactions. […] Heparin sulfate, a known RPA interacting molecule often used in the purification of the protein was used as a control. […] (data not shown). […] (FIG. 1B).
The interaction of compound 43 with RPA-AB constructs was performed by differential scanning fluorimetry using GloMelt™ Dye (Biotum). […] Reactions were run in an ABI 7500 real time PCR machine with temperature increasing from 25° C. to 99° C. at a 2% ramp (˜40 minutes) and fluorescence of the reporter was measured on the SYBR® Green setting. […] Data was uploaded to TSA-CRAFT software and Tm calculated as described by Lee et al. Heparin was employed as a positive control of binding to the AB-box of RPA.

[3] = Aqueous solubility in unbuffered water; type: physicochemical; settings: 43, 44, 45, 46, 47 vs 9, 16, 26, 28, 29 respectively
Experimental: (§1) Aqueous solubility was determined by suspending compound in un-buffered water with stirring. Insoluble material was removed by sedimentation or filtration and soluble compound quantified by absorbance spectroscopy and LC/MS. pH dependence was determined by suspending compound in 10 mM citrate buffer at pH 4.0 or 10 mM phosphate […] as described above in the description.
(§2) The morpholine ring is commonly introduced into solvent exposed regions as a privileged solubilizing group to improve solubility or pharmacokinetic properties including metabolic stability of a prospective drug scaffold which is exemplified by many FDA approved drugs. Modifications on Ring A had less of an effect than the morpholino modifications at the alkyl carboxylic acid side chain. To determine the effect of pH on solubility, we prepared solution at 1 mM in citrate buffer at pH 4, phosphate buffer at pH 7 and carbonate buffer at pH 9.5.

[4] = Aqueous solubility as a function of pH; type: physicochemical; settings: thermodynamic from solid
Experimental: as §1, §2

T1 sequence (P27694 whole entry): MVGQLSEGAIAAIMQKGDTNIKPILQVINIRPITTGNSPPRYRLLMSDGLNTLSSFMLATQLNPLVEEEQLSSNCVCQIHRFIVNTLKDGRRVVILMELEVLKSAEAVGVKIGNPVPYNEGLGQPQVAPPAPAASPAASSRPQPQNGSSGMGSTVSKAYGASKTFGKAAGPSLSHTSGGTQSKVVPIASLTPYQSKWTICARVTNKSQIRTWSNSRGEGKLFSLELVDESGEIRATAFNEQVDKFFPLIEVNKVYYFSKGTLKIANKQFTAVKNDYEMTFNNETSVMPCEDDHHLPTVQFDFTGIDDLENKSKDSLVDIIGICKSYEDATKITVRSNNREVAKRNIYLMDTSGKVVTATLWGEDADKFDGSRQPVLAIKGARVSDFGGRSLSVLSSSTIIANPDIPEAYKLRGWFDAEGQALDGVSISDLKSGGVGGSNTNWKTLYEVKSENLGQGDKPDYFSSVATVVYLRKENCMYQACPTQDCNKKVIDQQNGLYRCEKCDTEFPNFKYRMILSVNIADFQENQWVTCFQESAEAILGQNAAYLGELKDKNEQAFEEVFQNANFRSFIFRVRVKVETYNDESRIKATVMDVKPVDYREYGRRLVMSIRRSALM
T1 sequence (P15927 whole entry partner): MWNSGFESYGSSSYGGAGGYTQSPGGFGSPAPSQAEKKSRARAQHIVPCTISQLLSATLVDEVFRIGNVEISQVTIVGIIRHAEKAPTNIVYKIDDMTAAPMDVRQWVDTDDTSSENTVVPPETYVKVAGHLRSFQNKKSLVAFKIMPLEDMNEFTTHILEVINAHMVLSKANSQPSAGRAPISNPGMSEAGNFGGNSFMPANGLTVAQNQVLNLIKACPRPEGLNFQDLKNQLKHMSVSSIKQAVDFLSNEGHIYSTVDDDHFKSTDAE
T1 sequence (P35244 whole entry partner): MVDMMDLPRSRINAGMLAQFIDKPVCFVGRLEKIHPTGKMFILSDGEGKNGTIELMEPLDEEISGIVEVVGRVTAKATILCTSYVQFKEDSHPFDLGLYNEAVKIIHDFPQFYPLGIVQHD

IC50 [1]: 4.99 ± 0.28 µM
increase in Tm [2]: 0.6 °C
aqueous solubility compared to carboxylic acid counterpart (in words) [3]: increased solubility
solubility ([4]; aqueous buffer at pH 9.5, pH 9.5, aqueous buffer): 3.62 ± 2.22 µM (≈ 2.6 µg/mL)
solubility ([4]; aqueous buffer, pH 4, citrate buffer): 21.4 ± 5.49 µM (≈ 15.4 µg/mL)
solubility ([4]; aqueous buffer, pH 7, phosphate buffer): 5.72 ± 2.79 µM (≈ 4.11 µg/mL)
SMILES: CCOc1ccc2cc(C3CC(c4ccc(I)cc4)=NN3C(=O)CCCC(=O)NCCCN3CCOCC3)c(Cl)nc2c1 (stereo not drawn) [Compound 43, 5-(5-(2-Chloro-7-ethoxyquinolin-3-yl)-3-(4-iodophenyl)-4,5-dihydro-1H-pyrazol-1-yl)-N-(3-morpholinopropyl)-5-oxopentanamide]

— patent US12486246B2, “Replication protein A (RPA)-DNA interaction inhibitors” (THE TRUSTEES OF INDIANA UNIVERSITY, priority 2019, dated 2025)
